# Data reported in US20200281873A1, “Adamantane or Bicyclic Monoterpenoid Derivatives for Use in the Treatment of Leishmaniasis” (Commissariat a l'Energie Atomique et aux Energies …, priority 2017, published 2020).
# Read-outs that look alike come from different tables or passages of the source.
# How the values were obtained:
# [1] = test system: L. infantum intramacrophagic amastigotes; test: L. donovani infantum/RAW 264.7 macrophage model (intramacrophagic amastigotes, SYBR Green I); format: cell-based, Leishmania donovani infantum; settings: Leishmania infantum, Macrophage
# Method: Protocol for Evaluation on the L. donovani infantum/RAW 264.7 Macrophage Model (Intramacrophagic Amastigotes)
# Mouse macrophage cells RAW 264.7 (ATCC) were seeded into a 96-well microplate and maintained in DMEM medium (Applied Biosystems, France) supplemented with 10% heat-inactivated fetal bovine serum in a 5% CO2 incubator at 37° C. for 24 h. Then, the medium was replaced with 100 μL fresh medium containing a suspension of 10^5 L. infantum amastigotes and the incubation time was 16 h. Then, extracellular parasites were eliminated from the medium and 100 μL fresh medium containing compound in various concentrations were added for a 48 h-incubation. Parasite growth was determined by using SYBR® Green I (Life technology, Fisher Scientific, France), a dye with marked fluorescence enhancement upon contact with DNA. The cell lysis suspension was diluted 1:1 in lysis buffer (10 mM NaCl, 1 mM Tris HCl pH8, 2.5 mM EDTA pH 8, 0.05% SDS, 0.01 mg/mL proteinase K and 10×SYBR Green I). Incorporation of SYBR Green I in DNA amplification was measured using the Master epRealplex cycler® (Eppendorf, France) according to the following program to increase the SYBR green incorporation: 90° C. for 1 min, decrease in temperature from 90° C. to 10° C. for 5 min with reading the fluorescence at 10° C. for 1 min and a new reading at 10° C. for 2 min. The EC50 as the concentration inhibiting the parasite growth by 50% was calculated by nonlinear regression using icestimator website 1.2 version: http://www.antimalarial-icestimator.net/MethodIntro.htm.
# [2] = test system: Leishmania infantum axenic amastigotes; test: Evaluation on Leishmania donovani infantum axenic amastigotes (SYBR Green I); format: cell-based; settings: Leishmania infantum; Table II; 3 different experiments, SYBR Green I method; read-out: IC50 axenic
# Method: Protocol for Evaluation on Leishmania donovani infantum Axenic Amastigotes
# Amastigote forms of the parasite were suspended to yield 10^7 parasitic cells mL^−1. The maximum final compound concentration used was 100 μM. Triplicates were used for each concentration. Cultures were incubated at 37° C. for 72 h in the dark and under a 5% CO2 atmosphere, then the viability of the amastigotes was assessed using the SYBR® Green I (Invitrogen, France) incorporation method. Parasite growth was determined by using SYBR® Green I, a dye with marked fluorescence enhancement upon contact with parasite DNA. Parasites were lysed and quantified by Direct PCR-Cell Genotyping without DNA isolation protocol (Euromedex, France). 10 μL of lysed parasite solution from each well was added to 40 μL of PCR-Cell reagent containing the SYBR® green I in a qPCR plate of 96 wells, and the contents were mixed. Fluorescence was measured with Mastercycler® ep realplex (Eppendorf, France). Measured fluorescence was compared to that from the range obtained with different parasite densities. The antileishmanial activity was expressed as IC50 in μM (concentration of drug inhibiting 50% of the parasite growth, comparatively to the controls treated with the excipient only).
# [3] = Incubation of VP343 with dog hepatic microsomes (LC-MS); format: in vitro ADME; settings: for VP343 residual concentration: t = 45 min
# Method: The metabolites' identification of VP343 was performed after incubation of the compound with hepatic microsomal preparations from mouse, dog and human origin. The assay was performed by mixing VP343 at 5; 4; 2 or 1 μM with CD1 mouse hepatic microsomes (reference MIC255030 Biopredic) at 0.5 mg/mL of protein, or Beagle dog hepatic microsomes (reference MIC257013 Biopredic) at 1 mg/mL of protein, or human hepatic microsomes (reference MIC159882 Biopredic) at 1 mg/mL of protein, together with 1 mM NADPH (reference N1630 Sigma Aldrich), a phase I reaction's cofactor, in a 0.1 M phosphate buffer pH 7.4. Samples were then incubated in a Thermomixer® (Eppendorf) at 37° C. and 300 rotations per minute. After 45 minutes of incubation, the reaction was stopped with acetonitrile (0.5 volume of the experimental incubation volume). The samples' supernatants were then separated from the microsomes by centrifugation at 20,000 g during 10 minutes (Sorvall ST 16, Thermo Fisher Scientific) before analysis by liquid chromatography coupled to mass spectrometry (LC-MS).
# The analysis was performed in two steps: first, on a positive electrospray ionisation source using a Waters Acquity I class UPLC (Ultra Performance Liquid Chromatography) system coupled to a Waters triple quadrupole mass spectrometer (Xevo TQMS) and then on an orbitrap source using a Thermo Fisher UHPLC (Ultra High Performance Liquid Chromatography) system (Ultimate 3000) coupled to a Thermo Fisher orbitrap mass spectrometer (Q Exactive) to confirm the structures of the identified metabolites. VP343 and his metabolites were separated by the UPLC system with a six minutes gradient of acetonitrile containing 0.1% of formic acid in a BEH C18 column (1.7 μm, 2.1×50 mm, Waters) with a mobile phase flow rate of 0.6 mL/min.
# The metabolization of VP343 was studied by incubating the compound with mouse, dog, and human hepatic microsomes. The concentration of VP343 in the microsomal preparations was measured at t=0 and at t=45 min by liquid chromatography-tandem mass spectrometry (LC-MS). About 5% to 50% of VP343 remained after 45 min of incubation with mouse microsomes according to experiments (Table VI and FIG. 3, respectively). About 5% of VP343 remained with dog microsomes. About 40 to 55% remained with human microsomes.
# [4] = test system: L. donovani (MHOM/ET/67/HU3) amastigotes; test: In vivo antileishmanial evaluation, Leishmania donovani/Balb/c mouse model (liver parasite load); settings: for % reduction of parasite burden in the liver / LDU ± SD (parasites in the liver): Balb/c mice
# Method: Compounds VP343, VP370 were evaluated in vivo for their antileishmanial properties by oral and intravenous route on the Leishmania donovani/Balb/c mouse model, comparatively to miltefosine, used as reference drug, according to a previously described protocol (Balaraman et al., 2015). Six- to eight-week-old Balb/c mice (Élevages Janvier, Le Genest Saint Isle, France) were infected intravenously on day 1 with 10^7 L. donovani (MHOM/ET/67/HU3) amastigotes derived from the spleen of hamsters and randomly sorted into four groups of 10 mice and one group of 12 mice as infected controls but not treated. The treatment administered orally or intravenously, started one week post-infection, on day 8, and continued for 5 consecutive days. At day 15, all groups of mice were autopsied and livers and spleens were weighed. Parasite load in the liver was determined by counting the number of amastigotes/500 liver cells in Giemsa-stained impression smears prepared from the liver and applying Stauber's formula. Three researchers counted the slides independently and the results are expressed as the mean values±SD. The parasite burden of treated groups and controls were compared using Student's t-test or the Kruskal-Wallis nonparametric analysis of variance test for comparing two groups. Significance was established for a P value<0.05.
# [5] = intravenous route, 10 mg/kg/day × 5
compound,measurement,setting,value
COc1ccc(Br)cc1CN(C)C12CC3CC(CC(C3)C1)C2 [VP343],IC50,"[1]; Table II, 3 different experiments, SYBR Green I method, read-out: IC50 intramacrophagic",40 nM
same,IC50,"[1]; cf. Table II, read-out: IC50 (intramacrophage amastigotes)",40 nM
same,IC50,[2],9290 nM
same,VP343 remaining after incubation,[3]; 45 min,About 5%
same,VP343 residual concentration,[3]; initial concentration 1 μM,0.03 µM
same,VP343 residual concentration,[3]; initial concentration 2 μM,0.09 µM
same,VP343 residual concentration,[3]; initial concentration 4 μM,0.12 µM
same,Activity in vivo by intravenous route (in words),"[4]; 10 mg/kg/day×5 intravenous, Dunn's multiple comparisons test",significantly active
same,% reduction of parasite burden in the liver,[4]; [5],42.4%
same,LDU ± SD (parasites in the liver),[4]; [5],0.19 ± 0.09 ×10^8
same,% reduction of parasite burden in the liver,"[4]; oral route, 10 mg/kg/day × 5",60.2%
same,LDU ± SD (parasites in the liver),"[4]; oral route, 10 mg/kg/day × 5, autopsy day 15",0.49 ± 0.07 ×10^9
same,% reduction of parasite burden in the liver,"[4]; oral route, 20 mg/kg/day × 5",70.8%
same,LDU ± SD (parasites in the liver),"[4]; oral route, 20 mg/kg/day × 5, autopsy day 15",0.36 ± 0.08 ×10^9
same,Activity in vivo by oral route (in words),"[4]; VP343 and VP370 at 20 mg/kg/day×5, VP343 also at 10 mg/kg/day×5, Tukey's multiple comparisons test",significantly active
